# What was measured:
# Assay type in all cases: cell-based
# [1] = test system: MDA-MB-231; assay: Cell growth inhibition, CellTiter-Glo Luminescent Cell Viability Assay, MDA-MB-231; settings: Homo sapiens, MDA-MB-231 cells, 4 days incubation
# Outline: (§1)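 IC50 values come from CellTiter-Glo ATP luminescence after a 4-day exposure to a compound dilution series. Seeding was 2,000 cells per well at 37° C under 5% CO2, with reagent read after 10-20 min at room temperature.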
# [2] = test system: MOLM-13; assay: Cell growth inhibition, CellTiter-Glo Luminescent Cell Viability Assay, MOLM-13; settings: Homo sapiens, MOLM-13 cells, 4 days incubation
# Outline: as §1
# [3] = test system: RS4; 11; assay: Cell growth inhibition, CellTiter-Glo Luminescent Cell Viability Assay, RS4;11; settings: Homo sapiens, 96 h, RS4;11 cells, 4 days incubation
# Description: (§2) Cell growth inhibitory activity of representative Compounds of the Disclosure was determined in various cell lines using CellTiter-Glo® Luminescent Cell Viability Assay. Cells were seeded in 384-well white opaque cell culture plates at a density of 2,000 cells/well with serially diluted compounds and incubated at 37° C. in an atmosphere of 95% air and 5% CO2 for 4 days. Cell viability was determined using the CellTiter-Glo® Luminescent Cell Viability Assay Kit (Promega, Madison, Wis.) according to the manufacture's instruction. Briefly, a volume of CellTiter-Glo® Reagent equal to the volume of cell culture medium was added to each well, and then the plates were incubated at room temperature for 10-20 minutes. The luminescent signal was measured using a Tecan Infinite M1000 multimode microplate reader (Tecan, Morrisville, N.C.). The half maximal inhibitory concentration (IC50) was calculated using the GraphPad Prism 5 software (GraphPad Software, La Jolla, Calif.).
# [4] = test system: MDA-MB-468; assay: Cell growth inhibition, CellTiter-Glo Luminescent Cell Viability Assay, MDA-MB-468; settings: Homo sapiens, 96 h, MDA-MB-468 cells, 4 days incubation
# Description: as §2
"IC50 ([1]; MDA-MB-231, 96 h)","IC50 ([2]; MOLM-13, 96 h)",IC50 [3],IC50 [4],Structure (SMILES),IC50 ([1]; 96 h),IC50 ([2]; 96 h)
< 0.015 nM,< 0.015 nM,< 0.015 nM,< 0.015 nM,"Cc1c(C#Cc2cnn(CCCCCc3cccc4c3CN(C3CCC(=O)NC3=O)C4=O)c2)sc2c1C(c1ccc(Cl)cc1)=N[C@@H](C)c1nnc(C)n1-2 (stereo partly drawn) [Cpd. No. 24, 3-(4-(5-(4-(((S)-4-(4-chlorophenyl)-3,6,9-trimethyl-6H-thieno[3,2-f][1,2,4]triazolo[4,3-a][1,4]diazepin-2-yl)ethynyl)-1H-pyrazol-1-yl)pentyl)-1-oxoisoindolin-2-yl)piperidine-2,6-dione]",–,–
> 100 nM,66.1 nM,> 10 nM,> 100 nM,"Cc1c(C#Cc2cncn2CCCC#Cc2cccc3c2CN(C2CCC(=O)NC2=O)C3=O)sc2c1C(c1ccc(Cl)cc1)=NCc1nnc(C)n1-2 (stereo not shown) [Cpd. No. 28, 3-(4-(5-(5-((4-(4-chlorophenyl)-3,9-dimethyl-6H-thieno[3,2-f][1,2,4]triazolo[4,3-a][1,4]diazepin-2-yl)ethynyl)-1H-imidazol-1-yl)pent-1-yn-1-yl)-1-oxoisoindolin-2-yl)piperidine-2,6-dione]",–,–
30.4 nM,6.4 nM,1 nM,32.9 nM,"Cc1c(C#Cc2cnn(CCCC#Cc3ccc(F)c4c3CN(C3CCC(=O)NC3=O)C4=O)c2)sc2c1C(c1ccc(Cl)cc1)=NCc1nnc(C)n1-2 (stereo not shown) [compound 142, 3-(4-(5-(4-((4-(4-chlorophenyl)-3,9-dimethyl-6H-thieno[3,2-f][1,2,4]triazolo[4,3-a][1,4]diazepin-2-yl)ethynyl)-1H-pyrazol-1-yl)pent-1-yn-1-yl)-7-fluoro-1-oxoisoindolin-2-yl)piperidine-2,6-dione]",–,–
> 100 nM,32 nM,> 10 nM,> 100 nM,"Cc1c(C#Cc2cn(CCCC#Cc3cccc4c3C(=O)N(C3CCC(=O)NC3=O)C4=O)cn2)sc2c1C(c1ccc(Cl)cc1)=NCc1nnc(C)n1-2 (stereo not shown) [Cpd. No. 27, 4-(5-(4-((4-(4-chlorophenyl)-3,9-dimethyl-6H-thieno[3,2-f][1,2,4]triazolo[4,3-a][1,4]diazepin-2-yl)ethynyl)-1H-imidazol-1-yl)pent-1-yn-1-yl)-2-(2,6-dioxopiperidin-3-yl)isoindoline-1,3-dione]",–,–
24.2 nM,9.1 nM,1 nM,34.9 nM,"Cc1c(C#Cc2cnn(CCCC#Cc3cccc4c3C(=O)N(C3CCC(=O)NC3=O)C4=O)c2)sc2c1C(c1ccc(Cl)cc1)=NCc1nnc(C)n1-2 (stereo not shown) [Cpd. No. 25, 4-(5-(4-((4-(4-chlorophenyl)-3,9-dimethyl-6H-thieno[3,2-f][1,2,4]triazolo[4,3-a][1,4]diazepin-2-yl)ethynyl)-1H-pyrazol-1-yl)pent-1-yn-1-yl)-2-(2,6-dioxopiperidin-3-yl)isoindoline-1,3-dione]",–,–
1.7 nM,1.9 nM,0.3 nM,4.2 nM,"Cc1c(C#Cc2cnn(CCCCCc3cccc4c3CN(C3CCC(=O)NC3=O)C4=O)c2)sc2c1C(c1ccc(Cl)cc1)=NCc1nnc(C)n1-2 (stereo not shown) [Cpd. No. 23, 3-(4-(5-(4-((4-(4-chlorophenyl)-3,9-dimethyl-6H-thieno[3,2-f][1,2,4]triazolo[4,3-a][1,4]diazepin-2-yl)ethynyl)-1H-pyrazol-1-yl)pentyl)-1-oxoisoindolin-2-yl)piperidine-2,6-dione]",–,–

# More lines, now with the values behind:
Structure (SMILES),"IC50 ([1]; MDA-MB-231, 96 h)","IC50 ([2]; MOLM-13, 96 h)",IC50 [3],IC50 [4],IC50 ([1]; 96 h),IC50 ([2]; 96 h)
"Cc1c(C#Cc2cn(CCCCNc3cccc4c3CN(C3CCC(=O)NC3=O)C4=O)nn2)sc2c1C(c1ccc(Cl)cc1)=NCc1nnc(C)n1-2 (stereo not shown) [Cpd. No. 5, 3-(4-((4-(4-((4-(4-chlorophenyl)-3,9-dimethyl-6H-thieno[3,2-f][1,2,4]triazolo[4,3-a][1,4]diazepin-2-yl)ethynyl)-1H-1,2,3-triazol-1-yl)butyl)amino)-1-oxoisoindolin-2-yl)piperidine-2,6-dione]",–,–,0.29 nM,26.1 nM,22.8 nM,3.6 nM
"Cc1c(C#Cc2cn(CCCCCc3cccc4c3CN(C3CCC(=O)NC3=O)C4=O)nn2)sc2c1C(c1ccc(Cl)cc1)=NCc1nnc(C)n1-2 (stereo not shown) [Cpd. No. 3, 3-(4-(5-(4-((4-(4-chlorophenyl)-3,9-dimethyl-6H-thieno[3,2-f][1,2,4]triazolo[4,3-a][1,4]diazepin-2-yl)ethynyl)-1H-1,2,3-triazol-1-yl)pentyl)-1-oxoisoindolin-2-yl)piperidine-2,6-dione]",–,–,0.27 nM,3.1 nM,3.5 nM,1 nM
"Cc1c(C#Cc2ccc(CCCCNc3cccc4c3CN(C3CCC(=O)NC3=O)C4=O)cn2)sc2c1C(c1ccc(Cl)cc1)=NCc1nnc(C)n1-2 (stereo not shown) [Cpd. No. 7, 3-(4-((4-(6-((4-(4-chlorophenyl)-3,9-dimethyl-6H-thieno[3,2-f][1,2,4]triazolo[4,3-a][1,4]diazepin-2-yl)ethynyl)pyridin-3-yl)butyl)amino)-1-oxoisoindolin-2-yl)piperidine-2,6-dione]",–,–,0.81 nM,10.7 nM,6.08 nM,4.2 nM
"Cc1c(C#Cc2cn(CCCCNc3cccc4c3CN(C3CCC(=O)NC3=O)C4=O)nn2)sc2c1C(c1ccc(Cl)cc1)=N[C@@H](C)c1nnc(C)n1-2 (stereo partly drawn) [Cpd. No. 6, 3-(4-((4-(4-(((S)-4-(4-chlorophenyl)-3,6,9-trimethyl-6H-thieno[3,2-f][1,2,4]triazolo[4,3-a][1,4]diazepin-2-yl)ethynyl)-1H-1,2,3-triazol-1-yl)butyl)amino)-1-oxoisoindolin-2-yl)piperidine-2,6-dione]",–,–,< 0.0015 nM,1.7 nM,2.3 nM,0.77 nM
"Cc1c(C#Cc2cnn(CCCCNc3cccc4c3C(=O)N(C3CCC(=O)NC3=O)C4=O)c2)sc2c1C(c1ccc(Cl)cc1)=NCc1nnc(C)n1-2 (stereo not shown) [Cpd. No. 21, 4-((4-(4-((4-(4-chlorophenyl)-3,9-dimethyl-6H-thieno[3,2-f][1,2,4]triazolo[4,3-a][1,4]diazepin-2-yl)ethynyl)-1H-pyrazol-1-yl)butyl)amino)-2-(2,6-dioxopiperidin-3-yl)isoindoline-1,3-dione]",3.8 nM,1.1 nM,0.3 nM,6.5 nM,–,–
"Cc1c(C#Cc2cnn(CCCC#Cc3cccc4c3CN(C3CCC(=O)NC3=O)C4=O)c2)sc2c1C(c1ccc(Cl)cc1)=NCc1nnc(C)n1-2 (stereo not shown) [Cpd. No. 20, 3-(4-(5-(4-((4-(4-chlorophenyl)-3,9-dimethyl-6H-thieno[3,2-f][1,2,4]triazolo[4,3-a][1,4]diazepin-2-yl)ethynyl)-1H-pyrazol-1-yl)pent-1-yn-1-yl)-1-oxoisoindolin-2-yl)piperidine-2,6-dione]",0.08 nM,0.8 nM,0.1 nM,0.2 nM,–,–
"Cc1c(C#Cc2cn(CCCC#Cc3cccc4c3CN(C3CCC(=O)NC3=O)C4=O)nn2)sc2c1C(c1ccc(Cl)cc1)=N[C@@H](C)c1nnc(C)n1-2 (stereo partly drawn) [Cpd. No. 2, 3-(4-(5-(4-(((S)-4-(4-chlorophenyl)-3,6,9-trimethyl-6H-thieno[3,2-f][1,2,4]triazolo[4,3-a][1,4]diazepin-2-yl)ethynyl)-1H-1,2,3-triazol-1-yl)pent-1-yn-1-yl)-1-oxoisoindolin-2-yl)piperidine-2,6-dione]",–,–,< 0.0015 nM,0.27 nM,0.19 nM,0.4 nM
"Cc1c(C#Cc2cnn(CCCCNc3cccc4c3C(=O)N(C3CCC(=O)NC3=O)C4=O)c2)sc2c1C(c1ccc(Cl)cc1)=N[C@@H](C)c1nnc(C)n1-2 (stereo partly drawn) [Cpd. No. 22, 4-((4-(4-(((S)-4-(4-chlorophenyl)-3,6,9-trimethyl-6H-thieno[3,2-f][1,2,4]triazolo[4,3-a][1,4]diazepin-2-yl)ethynyl)-1H-pyrazol-1-yl)butyl)amino)-2-(2,6-dioxopiperidin-3-yl)isoindoline-1,3-dione]",0.9 nM,0.9 nM,0.2 nM,1.8 nM,–,–
"Cc1c(C#Cc2ccc(CCCCNc3cccc4c3CN(C3CCC(=O)NC3=O)C4=O)cn2)sc2c1C(c1ccc(Cl)cc1)=N[C@@H](C)c1nnc(C)n1-2 (stereo partly drawn) [Cpd. No. 8, 3-(4-((4-(6-(((S)-4-(4-chlorophenyl)-3,6,9-trimethyl-6H-thieno[3,2-f][1,2,4]triazolo[4,3-a][1,4]diazepin-2-yl)ethynyl)pyridin-3-yl)butyl)amino)-1-oxoisoindolin-2-yl)piperidine-2,6-dione]",–,–,0.19 nM,0.65 nM,0.17 nM,0.26 nM
"Cc1c(C#Cc2cn(CCCC#Cc3cccc4c3CN(C3CCC(=O)NC3=O)C4=O)nn2)sc2c1C(c1ccc(Cl)cc1)=NCc1nnc(C)n1-2 (stereo not shown) [Cpd. No. 1, 3-(4-(5-(4-((4-(4-chlorophenyl)-3,9-dimethyl-6H-thieno[3,2-f][1,2,4]triazolo[4,3-a][1,4]diazepin-2-yl)ethynyl)-1H-1,2,3-triazol-1-yl)pent-1-yn-1-yl)-1-oxoisoindolin-2-yl)piperidine-2,6-dione]",–,–,0.25 nM,10 nM,8.1 nM,1.16 nM

# — patent publication US10975093B2, “Fused 1,4-diazepines as BET protein degraders” (THE REGENTS OF THE UNIVERSITY OF MICHIGAN, priority 2016, dated 2021)
